{"source": "patent US7985415B2", "about": "“Medical devices employing novel polymers” (Rutgers, The State University of New Jersey, priority 1997, dated 2011)", "tested_on": "coronary arteries", "assay": "Swine stent model: coated stents implanted in coronary arteries, light microscopy and morphometry", "conditions": "for Stenosis (%): (Neointimal Area/IEL Area)x100; for EEL Area / IEL Area / Intimal Area / Intimal Thick. / Lumen Area: PolySAID II coating alone or with 20% added drug by weight", "excerpt": "A total of 8 stents were implanted in the coronary arteries of 3 miniswine for 28 days. The stent implants were Polymerix [nicknamed MARGI] 15 mm in length with an unexpanded diameter of 1.6 mm.\nAll stents were processed for light microscopic evaluation. Before processing, the vessels and hearts were x-rayed to locate and assess stent placement. For processing, the stented vessel segments were dehydrated in a graded series of ethanol and embedded in methylmethacrylate plastic. After polymerization, two to three millimeter sections were sawed from the proximal, mid and distal portions of each stent. Sections from the stents were cut on a rotary microtome at four to five microns, mounted and stained with hematoxylin and eosin and elastic Van Gieson stains. All sections were examined by light microscopy for the presence of inflammation, thrombus, neointimal formation, vessel wall injury and potential localized toxic effects associated with drug-coated stents.\nMyocardial sections were taken from the anterior, lateral, posterior and septal walls of the left ventricle distal to the stent and from the apical region of the left ventricle. To determine localized affects of the polymer and/or drug, the myocardium was also sampled beneath the area of stent placement. All sections were cut at 4-6 microns; mounted and stained with hematoxylin and eosin and examined for the presence of infarct, thromboembolus and inflammation.\nA vessel injury score was calculated according to the Schwartz method. The cross-sectional areas (external elastic lamina [EEL], internal elastic lamina [IEL] and lumen) of each section were measured with digital morphometry. Neointimal thickness was measured as the distance from the inner surface of each stent strut to the luminal border. Percent area stenosis was calculated with the formula [(Neointimal Area/IEL Area)×100]. Ordinal data was also collected for fibrin deposition and inflammation and hemorrhage around the stent struts and percent endothelialization of the lumen surfaces. Values are expressed as mean±SD. Mean variables were compared between the groups with the use of ANOVA with Fishers Post Hoc Correction for analysis of the data. A value of P≦0.05 was considered statistically significant.", "key": {"[1]": {"conditions": "miniswine coronary arteries, stents 28 days"}}}
{"smiles": "CC(=O)O[C@H]1C(=O)[C@@]2(C)[C@H]([C@H](OC(=O)c3ccccc3)[C@]3(O)C[C@H](OC(=O)[C@H](O)[C@@H](NC(=O)c4ccccc4)c4ccccc4)C(C)=C1C3(C)C)[C@]1(OC(C)=O)CO[C@@H]1C[C@@H]2O", "note": "[Paclitaxel, paclitaxel]", "values": [{"measurement": "% Struts (Fibrin)", "setting": "[1]", "result": 100, "unit": "%"}, {"measurement": "% Struts Hemorrhage", "setting": "[1]", "result": 100, "unit": "%"}, {"measurement": "% Struts with underlying medial necrosis", "setting": "[1]", "result": "8.67 ± 3.51", "unit": "%"}, {"measurement": "Ave Inflammation score", "setting": "[1]", "result": 2.0}, {"measurement": "light microscopy findings (vessel healing, neointima)", "setting": "[1]", "result": "malapposition with underlying medial necrosis with extensive accumulation of fibrin, hemorrhage, and inflammatory cells around the stent struts"}, {"measurement": "Stenosis (%)", "setting": "[1]", "result": "27.21 ± 17.11", "unit": "%"}, {"measurement": "EEL Area", "setting": "[1]", "result": "8.41 ± 2.95", "unit": "mm2"}, {"measurement": "IEL Area", "setting": "[1]", "result": "6.84 ± 2.56", "unit": "mm2"}, {"measurement": "Intimal Area", "setting": "[1]", "result": "2.14 ± 2.10", "unit": "mm2"}, {"measurement": "Intimal Thick.", "setting": "[1]", "result": "0.05 ± 0.01", "unit": "mm"}, {"measurement": "Lumen Area", "setting": "[1]", "result": "4.70 ± 0.64", "unit": "mm2"}, {"measurement": "Injury Score", "setting": "miniswine coronary arteries, stents 28 days, Schwartz method", "result": "0.35 ± 0.48"}]}
{"smiles": "CO[C@H]1C[C@@H]2CC[C@@H](C)[C@@](O)(O2)C(=O)C(=O)N2CCCC[C@H]2C(=O)O[C@H]([C@H](C)C[C@@H]2CC[C@@H](O)[C@H](OC)C2)CC(=O)[C@H](C)/C=C(\\C)[C@@H](O)[C@@H](OC)C(=O)[C@H](C)C[C@H](C)/C=C/C=C/C=C/1C", "note": "[Sirolimus, sirolimus]", "values": [{"measurement": "light microscopy findings (vessel healing, neointima)", "setting": "in vivo", "result": "less neointimal growth and were more healed than those coated with paclitaxel"}, {"measurement": "Stenosis (%)", "setting": "[1]", "result": "20.31 ± 10.1", "unit": "%"}, {"measurement": "EEL Area", "setting": "[1]", "result": "6.07 ± 0.61", "unit": "mm2"}, {"measurement": "IEL Area", "setting": "[1]", "result": "4.78 ± 0.39", "unit": "mm2"}, {"measurement": "Intimal Area", "setting": "[1]", "result": "0.96 ± .50 mm2"}, {"measurement": "Intimal Thick.", "setting": "[1]", "result": "0.10 ± 0.05", "unit": "mm"}, {"measurement": "Lumen Area", "setting": "[1]", "result": "3.81 ± 0.62", "unit": "mm2"}, {"measurement": "% Struts (Fibrin)", "setting": "miniswine, in vivo, 28 days", "result": "57.78 ± 43.47", "unit": "%"}, {"measurement": "% Struts Hemorrhage", "setting": "miniswine, in vivo, 28 days", "result": "28.33 ± 30.14", "unit": "%"}, {"measurement": "% Struts with underlying medial necrosis", "setting": "miniswine, in vivo, 28 days", "result": "0.68 ± 0.68", "unit": "%"}, {"measurement": "Ave Inflammation score", "setting": "miniswine, in vivo, 28 days", "result": "2.3 ± 0.58"}, {"measurement": "Injury Score", "setting": "miniswine, in vivo, 28 days", "result": "0.45 ± 0.69"}]}
